Molecules are shown by their SMILES.

Data set [1] deals with HCT-116 colon cancer cells. Put plainly: Killing of colon cancer cells by APX3330 combined with CPI-613 (Example 4). It is filed as cell-based, human. Particulars: 0.2, 0.8, 1.6, 3.1, 6.3 μM APX3330 combined with 100 and 75 μM CPI-613. The method, then:
Standard 3D co-culture assays as described in Example 2 were used to evaluate the cytotoxicity of the combination on tumor cells as well as cancer-associated fibroblasts.
As shown in FIGS. 15A-15C, there was greater than 50% killing of HCT-116 colon cancer cells using 0.2, 0.8, 1.6, 3.1, 6.3 μM APX3330 when combined with 100 and 75 μM CPI-613.

Data set [2] relates to human adenocarcinoma colon suspension cell line Colo-201. The data set can be described thus: Alamar blue cytotoxicity combination assay (CalcuSyn). It is filed as cell-based. The method, then:
Colo-201 (Yunhua Liu) was seeded in a 96-well tissue culture plate at 2000 cells/well in RPMI+Sodium Pyruvate+10% FBS and grown overnight at 37° C., 5% CO2. 2× Drug Media RPMI+Sodium Pyruvate+5% FBS was added at dosages of APX3330 (Apexian) in a 5-point spread from 75 uM to 6.3 uM and spiked with CPI-613 (Apexbio Technology) at 75 uM, or 50 uM, or alone for single agent. Cells were incubated 72 hours at 37° C., 5% CO2 and then 10% Alamar blue fluorescent cell viability indicator (INVITROGEN™) was added directly to plate. Indicator was incubated 4 hours at 37° C., 5% CO2, and then read on a fluorescent reader (SYNERGY™ H4 BioTek). […] FIG. 31D depicts Chou-Talalay Index (CI) of dose combinations (CalcuSyn). FIG. 31E depicts synergistic drug combinations (CalcuSyn) of APX3330 spiked with 50 uM CPI-613 or 75 uM CPI-613. […] Data shown is the average of 3 separate cytotoxicity assays; each assay normalized to media only control.

The test system of data set [3] is Pa03C. The data set can be described thus: 3D tumor spheroid culture growth (fluorescence intensity).
The subject of data set [4] is patient-derived Pa03C tumors with CAFs. Put plainly: Flank co-culture model of PDAC, APX3330 and Ruxolitinib. It is filed as in vivo, mice. The method, then: Treatment of the implanted tumors started on day 11 post implant. Particularly, the co-cultures implanted included 2.5×10^6 tumor cells +/−5 ×10^6 CAFs, providing a 1:2 ratio of tumor cell to CAF. […] The mice were then administered either 50 mg/kg APX3330 BID in 4% Cr:EtOH, 50 mg/kg Rux SID pm in 4% Cr:EtOH, or combinations of the agents. Treatment schedule consisted of treating for 5 days and then giving 2 days off treatment until the tumors reached an average size of 2000 mm^3.

The subject of data set [5] is Pa03C. Put plainly: Monolayer cytotoxicity under hypoxia (alamarBlue). Particulars: Homo sapiens, N = 3, read-out: LC50 (the source's name). It is filed as cell-based. An excerpt: (§1) To determine target selectivity, analogs of APX3330, APX2009 and APX2014, and an analog of SLC-0111, FC12-531A, were used.
On the technique in general: Alamar Blue is a resazurin reagent that responds to reducing activity.

Data set [6] relates to Panc10.05. Put plainly: Monolayer cytotoxicity under hypoxia (alamarBlue). It is filed as cell-based. Particulars: Homo sapiens, Panc1005, Panc10.05, N = 3, read-out: LC50 (the source's name).
Source text: as §1

Turning to `CCCCCCCCC/C(=C\C1=C(C)C(=O)C(OC)=C(OC)C1=O)C(=O)O` [APX3330], the “killing of HCT-116 colon cancer cells” value in data set [1] is “greater than 50%”. Also, the “drug combination synergy (Chou-Talalay, CalcuSyn)” value in data set [2] (APX3330 75 uM and 50 uM spiked with 50 uM CPI-613, 72 hours) was “synergy was observed”; in data set [2] (all but one APX3330 dosage (6.3 uM), spiked with 75 uM CPI-613, 72 hours), “Synergy was observed”. For the same compound, in data set [3] (Pa03C in co-culture with CAFs, APX3330 50 μM), the “effect of gemcitabine with APX3330 on tumor” value is recorded as “dose-dependent combination effect”. Also, the CC50 in data set [3] (read-out: LC50, 3D Cultures, Tumor Alone, Pa03C, D12 curves) amounted to 37.9 µM; in data set [5] it was 50.2 µM; in data set [6], 40.3 µM. In addition, in data set [4] (Ruxolitinib (Rux) in combination with APX3330), the tumor volume entry is listed as “reduction in tumor volume”. The average tumor size in data set [4] (combination therapy: 50 mg/kg APX3330 BID with 50 mg/kg Rux SID, day 31) turned out to be 1200 mm^3; in data set [4] (treatment alone, 50 mg/kg, day 28) it was 1750 mm³.

These data come from patent US12350247B2, “Use of APE1/Ref-1 inhibitors for treatment of retinal diseases” (Indiana University Research and Technology Corporation, priority 2017, dated 2025).
